Experimental data published in patent US20170065561A1, “METHODS OF CANCER THERAPY” (CAMBRIDGE ENTERPRISE LIMITED, priority 2014, published 2017).
“Also recorded” adds a separate entry of the source.

Columns and labels:
[1] = test system: type 1 (non-neuronopathic) Gaucher disease; conditions: type 1 Gaucher disease; cited from earlier work
GD mice [2] = assay: Delayed treatment experiments: lymphoid hyperplasia and lymphoma (histology); format: in vivo, mouse; conditions: delayed treatment: 300 mg/Kg daily, mean age 7.3 months, 5.4 months, total 9 mice
Procedure: (§1) To investigate the potential effects of delayed treatment, eight Gaucher mice were exposed to Genz-112638 after 6 months of age. The animals received the drug for 6 months at a dose 300 mg/kg daily and were killed at 12 months of age (FIG. 1). A group of eight matched Gaucher disease control mice were given the base standard diet; these animals were monitored and otherwise treated identically with those animals with delayed exposure to the study drug.

[3] = test system: glycosidases and other enzymes involved in sphingolipid metabolism; conditions: in vitro; cited from earlier work
GD mice [4] = assay: Main treatment experiments: histology and immunohistochemistry of tissues; conditions: for plasma-cell (CD138+) infiltration in the red pulp of the spleen: treated versus age-matched untreated GD mice
Procedure: A total of 22 induced Gaucher disease mice received GENZ 112638 at 300 mg/kg daily: four mice received the treatment over 3 months, four mice received the drug for 6 months, six mice received the diet for 7-9 months. […] A group of 8 mice received the drug for 10 months and were killed at 14 months of age. To serve as a control group, 45 age- and sex-matched induced Gaucher mice were given a standard diet.
Visceral organs (spleen, liver, lungs and kidneys) as well as long bones, lymph nodes, and, where relevant, tumours, were collected by dissection and either frozen or fixed in 4% w/v paraformaldehyde or 10% buffered formalin and processed in paraffin-embedded blocks for further analysis. Sample of long bones were fixed in 4% w/v paraformaldehyde and decalcified in EDTA for two weeks. Spleen and liver weights were recorded fresh at post mortem. Samples of venous blood were collected from the tail vein at 3 monthly intervals during the experimental protocol. Complete blood counts (CBC) were determined using an automated haematology analyser (SYSMEX XT 2000i). EDTA plasma or serum samples collected at post mortem were stored at −80° C. until thawed for analysis.
Paraffin-embedded sections of 3.5 μm were stained routinely with haematoxylin and eosin. Immunohistochemical staining was carried out using rat anti-mouse CD45R/B220 (R&D systems), anti-mouse CD3 (Abcam), CD138 (BD, Pharmingen), rat anti-mouse Mac-3 M3/84 clone (BD, Pharmingen) and rabbit anti-mouse Ki-67 (Abcam) primary antibodies. Staining was realized by the avidin-biotin peroxidase technique (Vectastatin ABC elite kit), and developed using diaminobenzidine with cresyl violet or haematoxylin counterstaining.
Lymphoproliferation in serial sections of spleen, liver, lungs and kidneys was estimated by a scoring system modified as described by Elmore [42]. Sections were reviewed blindly for lymphoma and lymphoproliferative reactions by a board-certified veterinary pathologist.

[5] = biological target: T1, 1-O-acylceramide synthase (Homo sapiens, UniProt Q8NCC3); conditions: cited from earlier work
T1 sequence (Q8NCC3 34-412): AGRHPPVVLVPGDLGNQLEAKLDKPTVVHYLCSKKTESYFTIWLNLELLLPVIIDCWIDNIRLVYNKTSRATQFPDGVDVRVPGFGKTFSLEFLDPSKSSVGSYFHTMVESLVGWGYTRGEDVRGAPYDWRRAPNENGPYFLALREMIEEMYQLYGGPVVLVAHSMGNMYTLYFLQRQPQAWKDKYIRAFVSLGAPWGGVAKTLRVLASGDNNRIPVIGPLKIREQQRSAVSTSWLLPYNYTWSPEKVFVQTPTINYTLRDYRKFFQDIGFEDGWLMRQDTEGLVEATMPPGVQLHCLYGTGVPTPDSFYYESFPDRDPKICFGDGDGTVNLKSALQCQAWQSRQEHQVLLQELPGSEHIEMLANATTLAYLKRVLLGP

[6] = mouse, in vivo, 300 mg/kg
Description: (§2) GENZ 112638 was introduced at a mean age of 1.5 months, with access to the diet and water ad libitum. All experimental animals were housed in individually ventilated cages in groups of up to three mice within the same environmental conditions. The health of the animals was checked daily; body weights and food consumption were monitored at intervals of three days. The humane endpoints were approved and established: (i) reduction of 20% or more of the greatest recorded body weight or (ii) the development of adverse manifestations (e.g. development of frank tumours or cachexia).

[7] = test system: plasma glucosylsphingosine; assay: Delayed treatment experiments: plasma glucosylsphingosine; format: in vivo, mouse; conditions: delayed treatment: mean age 7.3 months, 300 mg/kg daily for 5.4 months
Procedure: as §1
(§3) Concentrations of β-D-glucosylceramide in plasma in the short-term tolerability study were conducted as previously published. β-D-glucosylceramide, β-D-glucosylsphingosine and ceramide concentrations in tissues and plasma samples of the principal intervention and delayed-treatment experiments were quantified as previously reported.

[8] = test system: plasma β-D-glucosylceramide; assay: Main treatment experiments in GD mice: plasma glucosylceramide; format: in vivo, mouse
Procedure: (§4) The inducible mouse model of type 1 Gaucher disease [Gba^tm1Karl/tm1KarlTg (Mx1-cre) 1Cgn/0 (MGI:3687965; MGI:2176073)[41]. The mating, induction with polyinosinic-polycytidylic (poly I:C) acid sodium salt solution and genotyping were conducted as previously described. Animals of genotype Gba^tm1Karl/tm1KarlTg (Mx1-cre) 1Cgn/0 are referred GD mice; induced mice with the Gba^tm1Karl/tm1Karl and Gba^tm1Karl/+ genotypes and background strain wild type animals served as age-matched controls. All mice here reported had been bred on a C57BL/6 and 129/sv background.
as §2, §3

plasma glucosylceramide = assay: Delayed treatment experiments: plasma glucosylceramide; format: in vivo, mouse; conditions: delayed treatment: mean age 7.3 months, 300 mg/kg daily for 5.4 months
Procedure: as §1, §3

intracellular ceramide = conditions: cited from earlier work
[9] = test system: individuals with non-neuronopathic Gaucher disease; conditions: Phase III, over two years, oral; cited from earlier work
Gaucher mice [10] = assay: Main treatment experiments: plasma/serum protein electrophoresis and immunofixation (monoclonal immunoglobulin species); format: in vivo, mouse; conditions: for detectable monoclonal paraprotein species: GD mice, early administration from six weeks of age; for M-protein (number of mice): 300 mg/Kg daily months 1.5-12
Procedure: (§5) Plasma/serum protein electrophoresis was carried out in agarose gels using a semiautomatic system (Hydrasys, Sebia) using 10 μL samples of neat serum or plasma. Immunofixation using polyclonal anti-sera raised against murine heavy and light immunoglobulin chains was conducted with diluted serum samples as previously reported.
(§6) The non-parametric Mann-Whitney test was used for between-groups comparisons. The Fisher's exact test was used for comparison of the occurrence of lymphoma or plasma paraprotein in treated and untreated groups. Statistical analyses were conducted using GraphPad Prism v5.0 software.

[11] = test system: AKT protein kinase-mammalian target of rapamycin signaling; conditions: polycystic kidney disease; cited from earlier work
[12] = test system: (GBA^D409/null) knock-in model of Gaucher disease; conditions: 75 or 150 mg/kg daily orally for 10 weeks, cited from earlier work
plasma IgG = assay: Total IgG plasma concentrations (ELISA); format: in vivo, mouse; conditions: treated GD mice
Description: Total IgG ELISA kit (Affimetrix) was used to determine plasma IgG concentrations in selected groups of animals.

[13] = test system: plasma β-D-glucosylsphingosine; assay: Main treatment experiments in GD mice: plasma glucosylsphingosine; format: in vivo, mouse; conditions: for plasma glucosylsphingosine: GD mice with intermittent treatment; for reduction of plasma glucosylsphingosine: 300 mg/kg/day
Procedure: as §4, §2, §3

GD mice [14] = assay: Delayed treatment experiments: M protein species (electrophoresis and immunofixation); format: in vivo, mouse; conditions: delayed treatment: 300 mg/Kg daily months 7-12, age group 12-18 months
Procedure: as §1, §5

[15] = biological target: T2, UDP-glucosylceramide synthase (Homo sapiens, UniProt Q16739); conditions: read-out: IC50 (potency, UDP-glucosylceramide synthase); cited from earlier work
T2 sequence (Q16739 1-394): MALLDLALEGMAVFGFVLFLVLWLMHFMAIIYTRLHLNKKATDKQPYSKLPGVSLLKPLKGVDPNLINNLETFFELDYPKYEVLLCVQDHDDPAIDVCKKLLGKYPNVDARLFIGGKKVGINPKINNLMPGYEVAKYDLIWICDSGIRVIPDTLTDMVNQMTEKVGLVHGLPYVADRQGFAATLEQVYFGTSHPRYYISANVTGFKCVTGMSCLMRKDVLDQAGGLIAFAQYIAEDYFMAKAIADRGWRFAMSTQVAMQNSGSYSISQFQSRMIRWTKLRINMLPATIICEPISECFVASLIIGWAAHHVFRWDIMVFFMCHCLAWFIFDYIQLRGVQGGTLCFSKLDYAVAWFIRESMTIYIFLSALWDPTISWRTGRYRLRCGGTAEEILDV

[16] = test system: plasma glucosylceramide (GL-1); assay: Short-term dose-range experiment in GD mice: plasma glucosylceramide; format: in vivo, mouse; conditions: 6 week-old GD mice, 150 mg/kg and 300 mg/kg orally for two weeks
Procedure: as §4
The drug GENZ 112638 (Genzyme) was formulated in a standard rodent food (TestDiet) at 0.075% and 0.15% w/w. A group of six GD mice received 150 mg/kg daily, a second group of six GD mice received the drug at 300 mg/kg daily, and eight age-sex matched GD animals were given a base diet (TestDiet). The animals received the drug for 14 days and were then killed for analysis of tissue lipids.
as §3

Gaucher mice [17] = assay: Main treatment experiments: lymphoma incidence in Gaucher mice; format: in vivo, mouse
Procedure: as §6

[18] = in vivo; cited from earlier work
plasma ceramide = assay: Main treatment experiments in GD mice: plasma ceramide; format: in vivo, mouse; conditions: GD mice receiving the high dose
Procedure: as §4
as §2, with “All experimental animals were housed in individually ventilated cages in groups of up to three mice within the same environmental conditions.” left out
as §3

[19] = age group 0-6 months, total 4 mice
[20] = age group 7-12 months, total 10 mice
[21] = age group 13-18 months, total 8 mice

CCCCN1C[C@H](O)[C@@H](O)[C@H](O)[C@H]1CO [N-butyldeoxynojirimycin]
therapeutic action in clinical studies [1]: small therapeutic action

bis{N-[(1R,2R)-2-(2,3-dihydro-1,4-benzodioxin-6-yl)-2-hydroxy-1-(pyrrolidin-1-ylmethyl)ethyl]octanamide} (2R,3R)-2,3-dihydroxybutanedioate [eliglustat tartrate]
Lymphoid hyperplasia (number of mice) (GD mice [2]): 4
Lymphoma/myeloma (number of mice) (GD mice [2]): 1
Lymphoid hyperplasia (number of mice) (GD mice [2]; listed as GENZ 112638): five
Lymphoma/myeloma (number of mice) (GD mice [2]; listed as GENZ 112638): one and did not completely prevent
inhibitory properties towards glycosidases and other enzymes involved in sphingolipid metabolism [3]: minimal inhibitory properties
Ki-67 staining (proliferation marker), spleen (GD mice [4]; GD mice treated for 10 months, listed as Genz-112638): less evident; also recorded: decreased population of lymphoid cells
lipid-engorged macrophages in tissue sections (GD mice [4]; GD mice, liver and spleen): fewer lipid-engorged macrophages
pathological macrophages staining for the Mac 3 antigen (GD mice [4]; tissues of GD mice, listed as GENZ 112638): markedly decreased or absent; also recorded: prevented the florid appearance of pathological macrophages
cellularity of the spleens (GD mice [4]; treated Gaucher mice): slight decrease
plasma-cell (CD138+) infiltration in the red pulp of the spleen (GD mice [4]; listed as GENZ 112638): less evident
plasma-cell (CD138+) infiltration in the red pulp of the spleen (GD mice [4]; listed as Genz-112638): decreased number of CD138^+ lymphocytes
inflammatory changes in the liver, lungs and kidneys (GD mice [4]; treated versus untreated GD mice): reduced or absent
splenic architecture (H&E; B220/CD3 staining) (GD mice [4]; treated versus untreated GD mice, listed as GENZ 112638): preservation of the splenic architecture
splenic architecture (H&E; B220/CD3 staining) (GD mice [4]; treated versus untreated GD mice, listed as Genz-112638): preserved white pulp architecture
spleen and liver weights (GD mice [4]; treated versus untreated Gaucher mice): did not differ
inhibition of 1-O-acylceramide synthase [5]: does not inhibit 1-O-acylceramide synthase
animals withdrawn early from the study as a result of weight loss [6]: Two
plasma concentration of glucosylsphingosine [7]: decreased
glucosylceramide concentration in plasma ([8]; GD mice with intermittent treatment for 10 months, listed as GENZ 112638): raised above the reference range
glucosylceramide concentration in plasma ([8]; GD mice with intermittent treatment for 10 months, listed as Genz-112638): increased plasma concentration
plasma β-D-glucosylceramide concentration ([8]; GD mice, 300 mg/kg daily, early continuous treatment): decreased
glucosylceramide concentration in plasma ([8]; GD mice, after 10 months treatment, p<0.01): reduced
glucosylceramide/ceramide ratio ([8]; treated GD animals compared with untreated): markedly diminished
plasma concentration of glucosylceramide (plasma glucosylceramide): decreased
intracellular ceramide levels (intracellular ceramide): does not inhibit 1-O-acylceramide synthase or increase intracellular ceramide levels
key clinical manifestations of the disease [9]: clearly improved
detectable monoclonal paraprotein species (Gaucher mice [10]; listed as GENZ 112638): suppressed the appearance
detectable monoclonal paraprotein species (Gaucher mice [10]; listed as Genz-112638): none and prevents development of monoclonal paraproteins
M-protein (number of mice) (Gaucher mice [10]; [19]): 0
M-protein (number of mice) (Gaucher mice [10]; [20]): 0
M-protein (number of mice) (Gaucher mice [10]; [21]): 0
M-protein (number of mice) (Gaucher mice [10]; all age groups, total 22 mice): 0
AKT protein kinase-mTOR signaling and cell-cycle control [11]: repress
glucosylceramide in tissues ([12]; 10 week-old and 7 month-old mice): dose-dependent reduction
infiltration of abnormal macrophages in tissues [12]: decreased infiltration
total plasma immunoglobulin G concentrations (plasma IgG): decreased significantly
plasma glucosylsphingosine ([13]; listed as GENZ 112638): raised above the reference range
plasma glucosylsphingosine ([13]; listed as Genz-112638): not significantly different
plasma β-D-glucosylsphingosine concentration ([13]; GD mice, 300 mg/kg daily, early continuous treatment, listed as GENZ 112638, 300 mg/kg): decreased; also recorded: notable decrease
reduction of plasma glucosylsphingosine ([13]; GD mice, after 6 months of treatment, p<0.01): ~5 fold
reduction of plasma glucosylsphingosine ([13]; GD mice, after 9 months of treatment, p<0.05): ~2 fold
M protein (number of mice with monoclonal paraprotein or oligoclonal immunoglobulin secretion) (GD mice [14]): 5
M protein (number of mice with monoclonal paraprotein or oligoclonal immunoglobulin secretion) (GD mice [14]; listed as GENZ 112638): five
IC50 [15]: 24 nM
plasma glucosylceramide (GL-1) concentration [16]: decrease the concentration of glucosylceramide
plasma glucosylceramide (GL-1) concentration ([16]; listed as GENZ 112638): dose-dependent decrease
occurrence of B cell lymphoma, myeloma or other tumours (Gaucher mice [17]; 22 Gaucher mice exposed for 2-10 months, 300 mg/kg, early administration, listed as GENZ 112638, 300 mg/kg): No B cell lymphomas or other tumours were found; also recorded: completely prevented
Lymphoma (number of mice) (Gaucher mice [17]; [19]): 0
Lymphoma (number of mice) (Gaucher mice [17]; [20]): 0
Lymphoma (number of mice) (Gaucher mice [17]; [21]): 0
Lymphoma (number of mice) (Gaucher mice [17]; all age groups, total 22 mice): 0
safety and tolerability [18]: safe and tolerable
mean plasma ceramide concentrations (plasma ceramide): slightly increased
